The record followed here is US12414991B2, “Azobenzene derivatives, process for their preparation and their use for therapeutic treatment associated with ionizing radiations” (CENTRE NATIONAL DE LA RECHERCHE SCIENTIFIQUE, priority 2019, dated 2025).

Series [1] is described as follows: Quantification of ionizing-radiation-induced isomerization (molecular activation) by HPLC. The series is classed as physicochemical. Here is the method: Gamma ray irradiation. Gamma irradiation was performed with a Cesium-137 source (IBL 637) providing 662 keV photons at a dose rate of approximately 1 Gy/min. Radiation doses are expressed in Gray ([…]).
Gd-containing compounds (GdAzo or GdFAzo) and control compounds (Azo or FAzo) (50 μM, 200 μL, PBS) were introduced into two 96-well microplates (10 wells for each compound). Both microplates were first irradiated under UV light (365 nm, 0.817 mW·cm^−2, 5 min). One microplate (plate 1) was then kept in the dark and used as a non-irradiated control while the second (plate 2) was irradiated with an increment of ionizing radiation doses (2 Gy, 3 Gy, 5 Gy and 10 Gy). After each irradiation, absorbance spectrophotometric and HPLC injection (method C) analyses were performed on the non-irradiated (plate 1) and irradiated (plate 2) compounds. A 26 min time lag between UV irradiation of plates 1 and 2 was used to allow analysis of the unirradiated control compounds (plate 1) at the same time as the ionizing irradiated compounds (plate 2) after UV irradiation. […] The absorbance spectra were plotted by the mean of triplicates. The relative amount of each isomer was obtained by HPLC (detection at the isosbestic point wavelength under elution conditions) and the molecular activation (%) was determined by the difference in the proportion of trans isomer in the medium (3 independent experiments).

A short description of series [2]: Thermal relaxation of the compound. The series is classed as physicochemical.
The test system of a further series is Cells (PANC-1). Kind of series: Confocal microscopy in the presence of ionizing radiation: cell permeabilization (propidium iodide). It is filed as cell-based, human. Here is the method: Cells (PANC-1) were transferred to an imaging plate (Lab-Tek chamber slide system, glass, 8-well purchased from Thermo Fisher Scientific, France) 24 h before the start of the experiment, and were maintained in culture medium (10,000 cells in 200 μL/well) in a humid atmosphere at 37° C. with 5% CO2. Just before the experiment, the cell medium was replaced with PBS (100 μL) and IP (5 μL, final concentration 1 μM) was added to the medium. 15 min after the addition of PI, cis-GdAzo (100 μL, final concentration 0 μM, 250 μM, 500 μM or 850 μM) was introduced into the cell medium. A first series of images was acquired at this stage, and then the imaging plate was irradiated (gamma rays, 2 Gy). The imaging plate was then kept in the dark at 37° C. (plate warmer) and images were acquired every 5 min for 30 min and then every 10 min for 90 min. A similar procedure was used for the control experiment without irradiation except that the imaging plate was not irradiated with gamma rays. The cis-GdAzo compound was obtained by UV irradiation (365 nm, 0.817 mW·cm^−2, 30 min) of the trans-GdAzo compound (105 μL, 500 μM, 1 mM or 1.7 mM, cis-GdAzo>85%) in a 96-well microplate. […] The instrument was equipped with a laser diode at 561 nm as excitation wavelength. The red fluorescence emission was collected over a bandwidth of 598-672 nm and the transmission images were obtained with a white diode. The pinhole was set at 50 μm and the magnification lens at 1.2. The images were recorded by an e-Volve s-CMOS camera (Photometrics). Four images were recorded per well and two wells were used for each concentration of cis-GdAzo. Analysis of the 16-bit digital images was performed using ImageJ software (version 1.50i with the Adjustable Watershed plugin). The number of cells in the images acquired before irradiation was determined manually and the number of fluorescent cells in the images acquired before and after irradiation was calculated automatically using a script coded on ImageJ. Cell permeabilization was determined by the difference in the proportion of fluorescent cells before and 30 min after gamma irradiation (3 independent experiments).

The subject of series [3] is CCRF-CEM ARAC-8C cells (Gem-resistant human acute lymphoblastic leukemia). Kind of series: Therapeutic effect under ionizing radiation: cell viability by trypan blue cell count. The series is classed as cell-based. The procedure: Just before the experiment, the cells (CCRF-CEM ARAC-8C) were dispersed in PBS and transferred to a 48-well microplate (TPP cell culture microplates purchased from Thermo Fisher Scientific, France) (40,000 cells in 80 μL/well). Gem (20 μL, final concentration 0.1 μM) or PBS (20 μL) and cis-GdAzo compound (100 μL, final concentration 0 μM, 250 μM, 500 μM or 850 μM) were added just prior to gamma irradiation of the medium (2 Gy). The medium was maintained in the dark and in a humid atmosphere at 37° C. with 5% CO2 for 1 h. Next, culture medium (600 μL) was added to each well and the cells were washed by three centrifugation cycles (300 G, 5 min, 800 μL of culture medium used for each wash). The cells were finally dispersed in culture medium (600 μL) containing or not containing Gem (final concentration 0 μM or 0.1 μM) and were maintained in a humid atmosphere at 37° C. with 5% CO2 for 4 days. The number of live cells was determined by cell count in the presence of 1:1 (v/v) trypan blue (triplicate). The experiment was repeated three times independently. Cell viability was expressed as the ratio of the number of living cells after treatment to the number of living cells without any treatment (without irradiation, in the absence of Gem and cis-GdAzo). A similar procedure was used for the control experiment without irradiation except that the 48-well microplate was not irradiated with gamma rays. A similar procedure was used for the control experiment with Dotarem® (FIG. 2f) except that Dotarem® was used instead of cis-GdAzo. The cis-GdAzo compound was obtained by UV irradiation (365 nm, 0.817 mW·cm−2, 30 min) of the trans-GdAzo compound (105 μL, 500 μM, 1 mM or 1.7 mM, cis-GdAzo>85%) in a 96-well microplate.

Consider “Gadolinium 2,6-difluoro-4-(N-(1,4,7,10-tetraazacyclododecane-1,4,7-triacetic acid-10-glutaryl)-ethoxyamine)-2′,6′-difluoro-4′-butoxyazobenzene [GdFAzo]”, for which the “activation of the compound compared to GdAzo” value in series [1] (in vitro experimental conditions, FIG. 1c) is reported as “relatively low”. Further, the “activation by ionizing radiation” value in series [1] (ionizing radiation (X-rays, gamma rays, electrons), FIGS. 1a-f) is given as “can also be activated”. In series [2], the thermal relaxation entry is “slow enough”.

Take “Gadolinium 4-(N-(1,4,7,10-tetraazacyclododecane-1,4,7-triacetic acid-10-glutaryl)-ethoxyamine)-4′-butoxyazobenzene [GdAzo]”: the cell permeabilization is on record as 6.9% in the series with Cells (PANC-1) (250 μM, gamma rays at 2 Gy, 30 min after irradiation); 1.2% with Cells (PANC-1) (250 μM, without irradiation); 8.2% with Cells (PANC-1) (500 μM, gamma rays at 2 Gy, 30 min after irradiation); 2.8% in the series on Cells (PANC-1) (500 μM, without irradiation); 12.4% in the series on Cells (PANC-1) (850 μM, gamma rays at 2 Gy, 30 min after irradiation); 7.5% in the series with Cells (PANC-1) (850 μM, without irradiation). The “cell viability 4 days after treatment” value is 23% in series [3] (250 μM, absence of gemcitabine, gamma radiation at 2 Gy); 79% in series [3] (250 μM, absence of gemcitabine, without irradiation); 15% in series [3] (250 μM, presence of gemcitabine (0.1 μM), gamma radiation at 2 Gy); 49% in series [3] (250 μM, presence of gemcitabine (0.1 μM), without irradiation); 18% in series [3] (500 μM, absence of gemcitabine, gamma radiation at 2 Gy); 42% in series [3] (500 μM, absence of gemcitabine, without irradiation). Moreover, the “cell viability 4 days after treatment” value in series [3] (500 μM, presence of gemcitabine (0.1 μM), gamma radiation at 2 Gy) is 9.1%; in series [3] (500 μM, presence of gemcitabine (0.1 μM), without irradiation), 30%; in series [3] (850 μM, absence of gemcitabine, gamma radiation at 2 Gy), 3.0%; in series [3] (850 μM, absence of gemcitabine, without irradiation) it was 27%; in series [3] (850 μM, presence of gemcitabine (0.1 μM), gamma radiation at 2 Gy), 1.2%; in series [3] (850 μM, presence of gemcitabine (0.1 μM), without irradiation), 16%.

In the case of `CNC[C@H](O)[C@@H](O)[C@H](O)[C@H](O)CO.O=C([O-])CN1CCN(CC(=O)[O-])CCN(CC(=O)O)CCN(CC(=O)[O-])CC1.[Gd+3]` [Dotarem®, reference compound], the “therapeutic effect under ionizing radiation” value in series [3] (gamma irradiation (2 Gy), with or without Gem (0.1 μM), FIG. 2f) is recorded as “no therapeutic effect”.
